Experimental findings from ChEMBL document CHEMBL1201862, “PubChem BioAssay data set” (2004) are described below.

Some test systems named below: SK-MEL-2; MOLT-4; MCF7; CAKI-1; NCI-H522; COLO 205; M14; EKVX; A498; Malme-3M; UACC-257; 786-0; PC-3; SK-MEL-28; CCRF-CEM; OVCAR-8; MDA-MB-231; NCI-H226.
What all share (assay): NCI-60 cell line screen, 48 h

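Five concentrations, 48 hours, 96-well plates. Abbreviation: GI50, concentration required for 50% inhibition of growth.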 Calls of active or inactive are those of the source. Rule as the data show it: active = GI50 up to about 1.1 µM and inactive = higher.

Consider `C[C@]1(O)CC[C@H]2[C@@H]3CCc4cc(O)ccc4[C@H]3CC[C@@]21C`, for which the GI50 was 0.773 µM (active) with SK-MEL-2; 0.664 µM (active) in the assay on MOLT-4; 0.665 µM (active) with MCF7; 3.62 µM (inactive) in the assay on CAKI-1; 0.991 µM (active) with NCI-H522; 7.35 µM (inactive) with COLO 205. The GI50 in the assay with M14 was 1.18 µM (inactive); in the assay with EKVX it was 1.32 µM (inactive); in the assay with A498, 0.456 µM (active); with Malme-3M, 0.353 µM (active); in the assay on UACC-257, 28.2 µM (inactive); with 786-0, 6.38 µM (inactive). Moreover, the GI50 in the assay on PC-3 is 1.87 µM (inactive); with SK-MEL-28, 34.8 µM (inactive); in the assay on CCRF-CEM, 2.37 µM (inactive); with OVCAR-8, 7.48 µM (inactive); in the assay with MDA-MB-231, 7.23 µM (inactive).

On to `COc1cc(/C=c2\sc3n(c2=O)C(c2ccc(Cl)cc2)C2=C(CCCC2C)N=3)cc(OC)c1OC` (configuration not stated), for which the GI50 in the assay on SK-MEL-2, with MOLT-4, in the assay on MCF7, in the assay with CAKI-1, in the assay with M14 and in the assay on EKVX was > 100 µM (inactive) each time. In addition, the GI50 in the assay with A498, in the assay with UACC-257, in the assay with 786-0, in the assay with PC-3, with SK-MEL-28 and in the assay with CCRF-CEM was > 100 µM (inactive) each time. Moreover, the values for the GI50 in the assay with OVCAR-8 and with MDA-MB-231 were > 100 µM (inactive) and 25.9 µM (inactive), respectively.

Turning to `c1ccc(CSCCC(SCc2ccccc2)SCc2ccccc2)cc1`, the GI50 with NCI-H226, in the assay with SK-MEL-2, with MOLT-4, with MCF7, in the assay on CAKI-1 and with NCI-H522 was > 10 µM (inactive) throughout. Moreover, the GI50 in the assay with COLO 205, in the assay with M14, in the assay on EKVX, with A498, with Malme-3M and in the assay on UACC-257 was > 10 µM (inactive) in each case. Further, the GI50 in the assay on 786-0, with PC-3, in the assay with SK-MEL-28, in the assay on CCRF-CEM, with OVCAR-8 and in the assay with MDA-MB-231 was > 10 µM (inactive) throughout.

Take `O=c1[nH]c(=O)n(C2OC(CO)C(O)C2O)c2c1CCCC2` (configuration not stated): the GI50 in the assay on NCI-H226, in the assay with SK-MEL-2, in the assay on MOLT-4, with MCF7, in the assay with CAKI-1 and in the assay on NCI-H522 was > 100 µM (inactive) in each case. The GI50 with COLO 205, in the assay on M14, with EKVX, with A498, in the assay on Malme-3M and in the assay with UACC-257 was > 100 µM (inactive) throughout. In addition, the GI50 with 786-0, with PC-3, in the assay on SK-MEL-28, in the assay on CCRF-CEM, in the assay with OVCAR-8 and in the assay with MDA-MB-231 was > 100 µM (inactive) each time.

In the case of `CO/N=C(/C)c1cccc(Nc2nc3ccc(Cl)cc3c3[nH]c4ccccc4c23)c1`, the GI50 in the assay on NCI-H226 was 12.5 µM (inactive); in the assay on SK-MEL-2, 13.2 µM (inactive); in the assay with MOLT-4 it was 5.13 µM (inactive); in the assay on MCF7 it was 10.3 µM (inactive); in the assay on CAKI-1, 10.4 µM (inactive); in the assay on NCI-H522 it was 4.75 µM (inactive). In addition, the GI50 in the assay on COLO 205 was 5.87 µM (inactive); in the assay on M14 it was 6.92 µM (inactive); with A498 it was 4.29 µM (inactive); with UACC-257 it was 14.5 µM (inactive); with 786-0 it was 6.79 µM (inactive); in the assay on PC-3, 14 µM (inactive). Further, the GI50 in the assay on CCRF-CEM is 23 µM (inactive); with OVCAR-8, 8 µM (inactive); with MDA-MB-231, 13.4 µM (inactive).

Take `Cc1c(C)c2cc3c(=O)c(CCl)coc3c(C)c2oc1=O`: the GI50 in the assay with NCI-H226 is > 100 µM (inactive); in the assay with SK-MEL-2, > 100 µM (inactive); in the assay on MOLT-4, > 100 µM (inactive); in the assay with NCI-H522, 95.3 µM (inactive); in the assay with COLO 205 it was > 100 µM (inactive); in the assay with M14, > 100 µM (inactive). Moreover, the GI50 in the assay on EKVX is > 100 µM (inactive); in the assay with A498 it was > 100 µM (inactive); in the assay with Malme-3M, > 100 µM (inactive); in the assay with UACC-257, > 100 µM (inactive); in the assay with 786-0 it was 60.5 µM (inactive); in the assay with SK-MEL-28 it was > 100 µM (inactive). For the same compound, the GI50 in the assay on CCRF-CEM is 48.3 µM (inactive); in the assay on OVCAR-8 it was > 100 µM (inactive).

Consider `O=C1NC2OC(C(O)CO)C(O)C2O1` (configuration not stated), for which the GI50 with SK-MEL-2, in the assay on MOLT-4, with CAKI-1, in the assay on NCI-H522, in the assay on COLO 205 and with M14 was > 100 µM (inactive) in each case. Besides, the GI50 in the assay on EKVX, in the assay with A498, in the assay on Malme-3M, with UACC-257, in the assay with 786-0 and with SK-MEL-28 was > 100 µM (inactive) each time. For the same compound, the GI50 in the assay with CCRF-CEM and in the assay with OVCAR-8 was > 100 µM (inactive) each time.

For `C=C(COCO)C(C)=O`, the GI50 is > 61 µM (inactive) in the assay on NCI-H226; 22.8 µM (inactive) in the assay with SK-MEL-2; 2.66 µM (inactive) in the assay with MOLT-4; 16.3 µM (inactive) in the assay with MCF7; 2.5 µM (inactive) in the assay with CAKI-1; 2.14 µM (inactive) with NCI-H522. Also, the GI50 in the assay on COLO 205 is 7.52 µM (inactive); in the assay with M14, 13 µM (inactive); in the assay on EKVX, 20.4 µM (inactive); with A498, 27.9 µM (inactive); in the assay on Malme-3M, 9.73 µM (inactive); in the assay with UACC-257, 15.3 µM (inactive). The GI50 in the assay on 786-0 was 12 µM (inactive); in the assay with PC-3, 19.1 µM (inactive); in the assay with SK-MEL-28 it was 16.8 µM (inactive); with CCRF-CEM it was 2.86 µM (inactive); with OVCAR-8, 8.51 µM (inactive); in the assay on MDA-MB-231, 18.8 µM (inactive).

Take `O/N=C1/CC2(N3CCOCC3)C3CC/C(=N\O)C2CC1(Cc1ccccc1)C3` (configuration not stated): the GI50 with NCI-H226 is > 100 µM (inactive); with SK-MEL-2 it was > 100 µM (inactive); in the assay with MOLT-4 it was > 100 µM (inactive); in the assay with MCF7, 66.4 µM (inactive); in the assay with CAKI-1 it was > 100 µM (inactive); in the assay on NCI-H522 it was > 100 µM (inactive). Besides, the GI50 in the assay on COLO 205 is 82 µM (inactive); with M14, > 100 µM (inactive); in the assay on EKVX it was > 100 µM (inactive); in the assay with A498, > 100 µM (inactive); in the assay with Malme-3M, > 100 µM (inactive); with UACC-257, 66.8 µM (inactive). Also, the GI50 with 786-0, with PC-3, in the assay on SK-MEL-28, in the assay on CCRF-CEM, with OVCAR-8 and in the assay on MDA-MB-231 was > 100 µM (inactive) each time.

For the compound `COC(=O)[C@@H]1CN(C(=O)c2ccccc2)C(=O)N1`, the GI50 in the assay on NCI-H226 is > 100 µM (inactive); with MOLT-4, > 100 µM (inactive); with CAKI-1, > 10 µM (inactive); with NCI-H522, > 100 µM (inactive); in the assay with M14, > 100 µM (inactive); with EKVX it was > 100 µM (inactive). The GI50 with A498, with Malme-3M, in the assay on UACC-257, with 786-0, in the assay on PC-3 and with SK-MEL-28 was > 100 µM (inactive) throughout. The GI50 in the assay with CCRF-CEM, with OVCAR-8 and in the assay with MDA-MB-231 was > 100 µM (inactive) each time.

Regarding `O=C1CC(c2ccc(Cl)cc2)Oc2ccccc21` (configuration not stated), the GI50 in the assay on NCI-H226 is 4.75 µM (inactive); in the assay on SK-MEL-2, 18.8 µM (inactive); with MCF7, 3.83 µM (inactive); in the assay with CAKI-1, 26.3 µM (inactive); with COLO 205, 27 µM (inactive); in the assay on M14, 17.1 µM (inactive). Further, the GI50 is 18.6 µM (inactive) with EKVX; 26.2 µM (inactive) with A498; 40.3 µM (inactive) in the assay on UACC-257; 16.3 µM (inactive) in the assay on 786-0; 20.2 µM (inactive) with PC-3; 85.9 µM (inactive) in the assay on SK-MEL-28. Besides, the GI50 in the assay on CCRF-CEM is 11 µM (inactive); in the assay with OVCAR-8, 37.2 µM (inactive); in the assay with MDA-MB-231, 28.2 µM (inactive).

On to `Nc1ncc(Cc2ccc3c(c2)OCO3)c(N)n1`, for which the GI50 in the assay with NCI-H226, in the assay with MOLT-4, in the assay with MCF7, with CAKI-1, with COLO 205 and in the assay with M14 was > 100 µM (inactive) each time. In addition, the GI50 in the assay with EKVX, with A498, in the assay with Malme-3M, in the assay on UACC-257, in the assay on 786-0 and with PC-3 was > 100 µM (inactive) each time. The GI50 with SK-MEL-28, in the assay on CCRF-CEM, with OVCAR-8 and in the assay on MDA-MB-231 was > 100 µM (inactive) throughout.
